Our source for the IC50 values is patent publication US11638707B2, “Substituted amino triazoles useful as chitinase inhibitors” (Molecure S.A., priority 2019, dated 2023).

Where only a bound is given, the exact number is not on record here.

One series addresses recombinant human AMCase (Homo sapiens (Human), UniProt Q9BZP6). The series is described as follows: Human AMCase activity assay. The class given is biochemical. Particulars: citrate buffer pH 5.2, 37° C., 60 minutes, read-out: hAMCase, IC50. Here is the method:
(§1) The assay was run in the 96-well plate format, each reaction in the total volume of 100 μL. 4-Methylumbelliferyl B-D-N,N′-diacetylchitobioside hydrate was used as a substrate for the enzyme. Upon hydrolysis by AMCase, the substrate releases 4-methylumbelliferyl (4MU) that, when ionized in basic pH, emits fluorescence at 460 nm. Briefly, 40 μL of a substrate was added to each well, followed by 10 μL of compound dilution and 50 μL of hAMCase recombinant enzyme solution. The reaction was carried out in citrate buffer, pH 5.2, in the dark, at 37° C. for 60 minutes with shaking. […] The IC50 values were calculated using GraphPad Prism.

The target in the next series is recombinant human CHIT1 (Homo sapiens (Human), UniProt Q13231). Nature of the series: Human CHIT1 activity assay. The format is biochemical. Particulars: recombinant human CHIT1, citrate buffer pH 5.2, 37° C., 60 minutes; read-out: hCHIT1, IC50. Here is the method: as §1, with “4-methylumbelliferyl β-D-N,N′,N″-triacetylchitotriose” for “4-Methylumbelliferyl B-D-N,N′-diacetylchitobioside hydrate”, “CHIT1,” for “AMCase,”, “CHIT1” for “hAMCase”
Sequence of recombinant human CHIT1 (Q13231 22-466): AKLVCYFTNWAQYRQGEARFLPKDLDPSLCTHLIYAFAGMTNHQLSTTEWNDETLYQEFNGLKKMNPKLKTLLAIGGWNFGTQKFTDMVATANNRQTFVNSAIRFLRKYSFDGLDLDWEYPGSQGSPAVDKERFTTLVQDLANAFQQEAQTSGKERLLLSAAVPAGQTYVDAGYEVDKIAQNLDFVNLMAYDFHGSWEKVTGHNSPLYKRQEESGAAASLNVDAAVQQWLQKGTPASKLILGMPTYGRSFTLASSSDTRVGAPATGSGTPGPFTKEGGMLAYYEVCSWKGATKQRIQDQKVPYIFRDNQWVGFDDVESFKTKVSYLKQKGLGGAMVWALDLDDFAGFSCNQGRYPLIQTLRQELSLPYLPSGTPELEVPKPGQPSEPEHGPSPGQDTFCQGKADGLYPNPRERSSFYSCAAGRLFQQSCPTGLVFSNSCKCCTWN

A further series addresses hERG channel (Homo sapiens (Human), UniProt Q12809). The series is described as follows: Human ERG channel binding assay (fluorescence polarization). Particulars: Table 1; tracer displacement, 4 h at room temperature. Here is the method:
Human ERG Channel Binding Assay
Fluorescence polarization assay based on the principle of fluorescence polarization where a red-shifted fluorescent tracer is displaced from the hERG channel by compounds that bind to the channel was used to establish the binding of the compounds to hERG channel. […] Briefly, the compounds in serial dilutions were incubated with a membrane fraction containing hERG channel protein and a high-affinity red fluorescent hERG channel ligand in black 384-well plate. […] The IC50 values were calculated using GraphPad Prism.
On the technique in general: In fluorescence polarisation assays a small probe gives low polarisation when free and higher when bound to something large.

By IC50 is commonly meant the point on the concentration scale where inhibition reaches its midpoint.

Sequence of recombinant human AMCase (Q9BZP6 22-476): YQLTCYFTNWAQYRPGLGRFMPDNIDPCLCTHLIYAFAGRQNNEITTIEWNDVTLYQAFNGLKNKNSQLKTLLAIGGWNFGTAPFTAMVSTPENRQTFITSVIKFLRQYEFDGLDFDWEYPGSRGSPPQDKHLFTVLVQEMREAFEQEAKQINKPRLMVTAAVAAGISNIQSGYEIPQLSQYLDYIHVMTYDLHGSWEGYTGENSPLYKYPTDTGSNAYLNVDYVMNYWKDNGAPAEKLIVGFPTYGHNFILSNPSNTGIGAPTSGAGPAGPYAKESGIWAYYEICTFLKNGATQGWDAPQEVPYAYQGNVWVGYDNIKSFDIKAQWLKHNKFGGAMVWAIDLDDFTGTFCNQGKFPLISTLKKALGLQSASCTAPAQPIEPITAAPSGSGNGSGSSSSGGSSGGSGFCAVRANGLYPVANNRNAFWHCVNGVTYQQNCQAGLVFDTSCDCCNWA
Sequence of hERG channel (Q12809 whole entry): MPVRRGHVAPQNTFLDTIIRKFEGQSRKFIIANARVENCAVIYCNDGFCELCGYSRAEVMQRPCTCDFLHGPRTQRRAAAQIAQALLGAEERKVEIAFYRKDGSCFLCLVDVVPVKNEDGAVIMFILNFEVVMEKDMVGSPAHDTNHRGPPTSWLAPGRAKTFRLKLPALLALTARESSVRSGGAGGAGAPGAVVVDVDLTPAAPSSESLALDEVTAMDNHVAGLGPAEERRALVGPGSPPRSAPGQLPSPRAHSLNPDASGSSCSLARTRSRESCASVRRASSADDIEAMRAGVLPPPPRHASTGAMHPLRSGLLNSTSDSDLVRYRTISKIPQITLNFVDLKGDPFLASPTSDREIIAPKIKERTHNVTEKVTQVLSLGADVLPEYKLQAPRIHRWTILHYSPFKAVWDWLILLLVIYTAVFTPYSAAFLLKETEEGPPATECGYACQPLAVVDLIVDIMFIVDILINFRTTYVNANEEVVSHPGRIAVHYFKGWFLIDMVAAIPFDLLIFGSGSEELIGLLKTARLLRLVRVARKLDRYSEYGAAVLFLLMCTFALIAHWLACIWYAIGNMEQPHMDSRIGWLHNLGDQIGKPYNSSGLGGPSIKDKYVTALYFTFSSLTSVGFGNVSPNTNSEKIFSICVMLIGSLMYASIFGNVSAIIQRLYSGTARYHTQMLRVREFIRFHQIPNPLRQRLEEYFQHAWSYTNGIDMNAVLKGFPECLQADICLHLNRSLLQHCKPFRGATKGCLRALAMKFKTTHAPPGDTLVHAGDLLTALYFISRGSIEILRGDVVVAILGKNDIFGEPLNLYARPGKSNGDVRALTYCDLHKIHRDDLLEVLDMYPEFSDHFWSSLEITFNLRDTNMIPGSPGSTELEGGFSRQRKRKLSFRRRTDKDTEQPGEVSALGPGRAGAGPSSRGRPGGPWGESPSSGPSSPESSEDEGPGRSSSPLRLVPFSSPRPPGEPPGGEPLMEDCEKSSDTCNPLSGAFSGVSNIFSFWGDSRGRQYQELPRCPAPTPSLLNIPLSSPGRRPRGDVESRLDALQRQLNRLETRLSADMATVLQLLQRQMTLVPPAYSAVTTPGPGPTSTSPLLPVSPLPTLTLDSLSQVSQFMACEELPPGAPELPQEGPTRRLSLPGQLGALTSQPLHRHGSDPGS

Regarding `CC(C)(F)[C@H]1CN(C2CCN(c3nnc(N)[nH]3)CC2)[C@@H](Cc2ccc(Cl)cc2)CO1` [Example 1, 5-(4-((2R,5S)-5-(4-chlorobenzyl)-2-(2-fluoropropan-2-yl)morpholino)piperidin-1-yl)-4H-1,2,4-triazol-3-amine 2,2,2-trifluoroacetate], the IC50 at recombinant human AMCase was less than 100 nM; at recombinant human CHIT1 it was less than 100 nM; on hERG channel, 25000 to 100000 nM.

As for `Nc1nnc(N2CCC(N3C[C@H](C(F)F)OC[C@@H]3Cc3ccc(Cl)cc3)CC2)[nH]1` [Example 2, 5-(4-((2R,5S)-5-(4-chlorobenzyl)-2-(difluoromethyl)morpholino)piperidin-1-yl)-4H-1,2,4-triazol-3-amine 2,2,2-trifluoroacetate], the IC50 at recombinant human AMCase was less than 100 nM; on recombinant human CHIT1, less than 100 nM; at hERG channel it was greater than 100000 nM.

For `Nc1nnc(N2CCC(N3C[C@H](CF)OC[C@@H]3Cc3ccc(Cl)cc3)CC2)[nH]1` [Example 3, 5-(4-((2R,5S)-5-(4-chlorobenzyl)-2-(fluoromethyl)morpholino)piperidin-1-yl)-4H-1,2,4-triazol-3-amine 2,2,2-trifluoroacetate], the IC50 is less than 100 nM at recombinant human AMCase, less than 100 nM at recombinant human CHIT1 and greater than 100000 nM at hERG channel.

As for `Nc1nnc(N2CCC(N3C[C@H](Cc4nn[nH]n4)OC[C@@H]3Cc3ccc(Cl)cc3)CC2)[nH]1` [Example 4, 5-(4-((2S,5S)-2-((2H-tetrazol-5-yl)methyl)-5-(4-chlorobenzyl)morpholino)-piperidin-1-yl)-4H-1,2,4-triazol-3-amine 2,2,2-trifluoroacetate], the half-inhibitory concentration (IC50) is less than 100 nM on recombinant human AMCase, less than 100 nM on recombinant human CHIT1 and greater than 100000 nM on hERG channel.

As to `Cn1nnc(C[C@H]2CN(C3CCN(c4nnc(N)[nH]4)CC3)[C@@H](Cc3ccc(Cl)cc3)CO2)n1` [Example 5, 5-(4-((2S,5S)-5-(4-chlorobenzyl)-2-((2-methyl-2H-tetrazol-5-yl)methyl)-morpholino)piperidin-1-yl)-4H-1,2,4-triazol-3-amine 2,2,2-trifluoroacetate], the results for the 50% inhibitory concentration (IC50) at recombinant human AMCase, on recombinant human CHIT1 and at hERG channel were less than 100 nM, less than 100 nM and 25000 to 100000 nM, respectively.

With `N#CC[C@H]1CN(C2CCN(c3nnc(N)[nH]3)CC2)[C@@H](Cc2ccc(Cl)cc2)CO1` [Example 6, 2-((2S,5S)-4-(1-(5-amino-4H-1,2,4-triazol-3-yl)piperidin-4-yl)-5-(4-chlorobenzyl)-morpholin-2-yl)acetonitrile 2,2,2-trifluoroacetate], the IC50 on recombinant human AMCase is less than 100 nM; at recombinant human CHIT1, less than 100 nM; on hERG channel, greater than 100000 nM.

Consider `Nc1nnc(N2CCC(N3C[C@H](CN4CCCC4=O)OC[C@@H]3Cc3ccc(Cl)cc3)CC2)[nH]1` [Example 7, 1-(((2R,5S)-4-(1-(5-amino-4H-1,2,4-triazol-3-yl)piperidin-4-yl)-5-(4-chlorobenzyl)-morpholin-2-yl)methyl)pyrrolidin-2-one 2,2,2-trifluoroacetate], for which the IC50 at recombinant human AMCase was less than 100 nM; on recombinant human CHIT1, less than 100 nM; on hERG channel, greater than 100000 nM.

Turning to `N#Cc1cnn(C[C@H]2CN(C3CCN(c4nnc(N)[nH]4)CC3)[C@@H](Cc3ccc(Cl)cc3)CO2)c1` [Example 8, 1-(((2R,5S)-4-(1-(5-amino-4H-1,2,4-triazol-3-yl)piperidin-4-yl)-5-(4-chlorobenzyl)-morpholin-2-yl)methyl)-1H-pyrazole-4-carbonitrile 2,2,2-trifluoroacetate], the half-inhibitory concentration (IC50) is less than 100 nM at recombinant human AMCase, less than 100 nM at recombinant human CHIT1 and 25000 to 100000 nM on hERG channel.

In the case of `Cn1ccc([C@H]2CN(C3CCN(c4nnc(N)[nH]4)CC3)[C@@H](Cc3ccc(Cl)cc3)CO2)n1` [Example 9, 5-(4-((2R,5S)-5-(4-chlorobenzyl)-2-(1-methyl-1H-pyrazol-3-yl)morpholino)-piperidin-1-yl)-4H-1,2,4-triazol-3-amine 2,2,2-trifluoroacetate], the IC50 on recombinant human AMCase is less than 100 nM; at recombinant human CHIT1, less than 100 nM; at hERG channel, greater than 100000 nM.

For the compound `Cn1nccc1[C@H]1CN(C2CCN(c3nnc(N)[nH]3)CC2)[C@@H](Cc2ccc(Cl)cc2)CO1` [Example 10, 5-(4-((2R,5S)-5-(4-chlorobenzyl)-2-(1-methyl-1H-pyrazol-5-yl)morpholino)piperidin-1-yl)-4H-1,2,4-triazol-3-amine 2,2,2-trifluoroacetate], the values for the IC50 at recombinant human AMCase, on recombinant human CHIT1 and on hERG channel were less than 100 nM, less than 100 nM and greater than 100000 nM, respectively.

Consider `Cc1cc([C@H]2CN(C3CCN(c4nnc(N)[nH]4)CC3)[C@@H](Cc3ccc(Cl)cc3)CO2)nn1C` [Example 11, 5-(4-((2R,5S)-5-(4-chlorobenzyl)-2-(1,5-dimethyl-1H-pyrazol-3-yl)morpholino)-piperidin-1-yl)-4H-1,2,4-triazol-3-amine 2,2,2-trifluoroacetate], for which the IC50 is less than 100 nM on recombinant human AMCase, less than 100 nM at recombinant human CHIT1 and greater than 100000 nM at hERG channel.

As for `Nc1nnc(N2CCC(N3C[C@H](c4ccn[nH]4)OC[C@@H]3Cc3ccc(Cl)cc3)CC2)[nH]1` [Example 12, 5-(4-((2R,5S)-5-(4-chlorobenzyl)-2-(1H-pyrazol-5-yl)morpholino)piperidin-1-yl)-4H-1,2,4-triazol-3-amine 2,2,2-trifluoroacetate], the values for the IC50 on recombinant human AMCase, on recombinant human CHIT1 and at hERG channel were less than 100 nM, less than 100 nM and greater than 100000 nM, respectively.

As to `Nc1nnc(N2CCC(N3C[C@H](Cn4cccn4)OC[C@@H]3Cc3ccc(Cl)cc3)CC2)[nH]1` [Example 13, 5-(4-((2R,5S)-2-((1H-pyrazol-1-yl)methyl)-5-(4-chlorobenzyl)morpholino)-piperidin-1-yl)-4H-1,2,4-triazol-3-amine 2,2,2-trifluoroacetate], the IC50 was less than 100 nM at recombinant human AMCase, less than 100 nM on recombinant human CHIT1 and greater than 100000 nM on hERG channel.

On to `Nc1nnc(N2CCC(N3C[C@H](CC(F)(F)F)OC[C@@H]3Cc3ccc(Cl)cc3)CC2)[nH]1` [Example 14, 5-(4-((2S,5S)-5-(4-chlorobenzyl)-2-(2,2,2-trifluoroethyl)morpholino)piperidin-1-yl)-4H-1,2,4-triazol-3-amine 2,2,2-trifluoroacetate], for which the IC50 was less than 100 nM at recombinant human AMCase, less than 100 nM at recombinant human CHIT1 and greater than 100000 nM on hERG channel.

In the case of `Nc1nnc(N2CCC(N3C[C@H](CN4CCOCC4)OC[C@@H]3Cc3ccc(Cl)cc3)CC2)[nH]1` [Example 15, 5-(4-((2S,5S)-5-(4-chlorobenzyl)-2-(morpholinomethyl)morpholino)piperidin-1-yl)-4H-1,2,4-triazol-3-amine 2,2,2-trifluoroacetate], the half-maximal inhibitory concentration (IC50) is less than 100 nM on recombinant human AMCase, less than 100 nM on recombinant human CHIT1 and greater than 100000 nM at hERG channel.

In the case of `Nc1nnc(N2CCC(N3C[C@H]([C@H](O)C(F)(F)F)OC[C@@H]3Cc3ccc(Cl)cc3)CC2)[nH]1` [Example 16, (S)-1-((2R,5S)-4-(1-(5-amino-4H-1,2,4-triazol-3-yl)piperidin-4-yl)-5-(4-chloro-benzyl)morpholin-2-yl)-2,2,2-trifluoroethanol 2,2,2-trifluoroacetate], the half-maximal inhibitory concentration (IC50) on recombinant human AMCase was less than 100 nM; at recombinant human CHIT1, less than 100 nM; at hERG channel, greater than 100000 nM.
